Source: patent US20050215626A1, “Substituted benzofuran oximes” (WYETH, priority 2003, published 2005)
pIC50: −log10 of the molar value.

Each molecule was assayed against human PAI-1 (Homo sapiens, UniProt P05121) (assay: Assay for determining the IC50 of inhibition of PAI-1 (active PAI-1 bound to tPA-coated plate, antibody detection)). Conditions: inhibition of Plasminogen Activator Inhibitor-1; test compounds 1-50 μM incubated with human PAI-1 (50 ng/ml), pH 7.5, human tPA-coated plate.
Assay type: biochemical
Method: This assay is based upon the non-SDS dissociable interaction between tPA and active PAI-1. Assay plates are initially coated with human tPA (10 μg/ml). Test compounds are dissolved in DMSO at 10 mM, then diluted with physiologic buffer (pH 7.5) to a final concentration of 1-50 μM. The test compounds are incubated with human PAI-1 (50 ng/ml) for 15 minutes at room temperature. The tPA-coated plate is washed with a solution of 0.05% Tween 20 and 0.1% BSA, then the plate is blocked with a solution of 3% BSA. An aliquot of the test compound/PAI-1 solution is then added to the tPA-coated plate, incubated at room temperature for 1 hour, and washed. Active PAI-1 bound to the plate is assessed by adding an aliquot of a 1:1000 dilution of the 33B8 monoclonal antibody against human PAI-1, and incubating the plate at room temperature for 1 hour (Molecular Innovations, Royal Oak, Mich.). The plate is again washed, and a solution of goat anti-mouse IgG-alkaline phosphatase conjugate is added at a 1:50,000 dilution in goat serum. The plate is incubated 30 minutes at room temperature, washed, and a solution of alkaline phosphatase substrate is added. The plate is incubated 45 minutes at room temperature, and color development is determined at OD405 nm. The quantitation of active PAI-1 bound to tPA at varying concentrations of the test compound is used to determine the IC50. Results are analyzed using a logarithmic best-fit equation. The assay sensitivity is 5 ng/mi of human PAI-1 as determined from a standard curve ranging from 0-100 ng/ml.

Chain of human PAI-1 (P05121 24-402): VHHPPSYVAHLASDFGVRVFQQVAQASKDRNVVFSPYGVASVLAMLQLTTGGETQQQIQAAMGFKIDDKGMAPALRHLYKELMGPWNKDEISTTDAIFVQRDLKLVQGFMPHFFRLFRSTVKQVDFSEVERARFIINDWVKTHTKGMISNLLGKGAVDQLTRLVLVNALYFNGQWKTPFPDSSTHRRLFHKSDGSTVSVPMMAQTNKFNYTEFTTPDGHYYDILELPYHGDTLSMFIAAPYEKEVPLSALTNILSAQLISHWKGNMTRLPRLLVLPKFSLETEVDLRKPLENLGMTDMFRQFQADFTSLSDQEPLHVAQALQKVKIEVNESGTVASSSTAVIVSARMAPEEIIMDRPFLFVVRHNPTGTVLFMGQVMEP

With CCCCc1oc2ccccc2c1/C=N/OCCOc1ccc(C(=O)O)cc1Cl [Compound 4, 4-[2-({[(1E)-(2-butyl-1-benzofuran-3-yl)methylidene]amino]oxy)ethoxy]-3-chlorobenzoic acid] as the molecule, how does the pIC50 read?
Its pIC50 is 4.61.

With CCCCc1oc2ccccc2c1/C=N/OCCCOc1ccc(C(=O)O)c(O)c1 [Compound 3, 4-[3({[(1E)-(2-butyl-1-benzofuran-3-yl)methylidene]amino}oxy)propoxy]-2-hydroxybenzoic acid] as the molecule, how does the pIC50 read?
Its pIC50 is 4.72.

With CCCCc1oc2ccccc2c1/C=N/OCCCOc1ccc(C(=O)O)c(NC(=O)c2ccc(C(C)(C)C)cc2)c1 [Compound 1, 4-[3-({[(1E)-(2-butyl-1-benzofuran-3-yl)methylidene]amino}oxy)propoxy]-2-[(4-tert-butylbenzoyl)amino]-benzoic acid] as the molecule, how does the pIC50 read?
Its pIC50 is 4.35.

CCCCc1oc2ccccc2c1/C=N/OCCCOc1ccc(CC(=O)O)cc1 [Compound 2, {4-[3-({[(1E)-(2-butyl-1-benzofuran-3-yl)methylidene]amino}oxy)propoxy]phenyl}acetic acid] was tested. Which pIC50 did it give?
The pIC50 was 4.50.

How did the pIC50 turn out when CCCCc1oc2ccccc2c1/C=N/OCc1ccc(C(=O)O)c(Br)c1 [Compound 5, 2-bromo-4-[({[(1E)-(2-butyl-1-benzofuran-3-yl)methylidene]amino}oxy)methyl]benzoic acid] was run?
Its pIC50 is 4.53.

With CCCCc1oc2ccccc2c1/C=N/OCCCOc1ccc(C(=O)O)cc1-c1ccc(C(F)(F)F)cc1 [Compound 6, 6-[3-({[(1E)-(2-butyl-1-benzofuran-3-yl)methylidene]amino}oxy)propoxy]-4′-(trifluoromethyl)-1,1′-biphenyl-3-carboxylic acid] as the molecule, how does the pIC50 read?
The pIC50 was 4.76.
